Patent US10308648B2, “Inhibitors of cyclin-dependent kinase 7 (CDK7)” (Syros Pharmaceuticals, Inc., priority 2014, dated 2019)
Counter-ions that a name gives are not always drawn.

Experiments:
CDK7 = CDK7 (Homo sapiens (Human), UniProt P50613); test: CDK7 kinase activity (Life Technologies Adapta kinase assay); type: biochemical; settings: 10 μM down to 0.514 nM, 3-fold serial dilutions, read-out: CDK7 Inhibition (IC50)
Description: Compounds of the invention were assayed for CDK7 activity at Life Technologies™ (Grand Island, N.Y.) using their commercially available Adapta® kinase assay services. Test compounds were tested at concentrations ranging from 10 μM down to 0.514 nM in a series of 3-fold serial dilutions. Details of this assay, including substrates used, are available on the Life Technologies web site (http://www.lifetechnologies.com/us/en/home/life-science/drug-discovery/target-and-lead-identification-and-validation/kinasebiology/kinase-activity-assays.html). The results of the assay are shown below in Table 3 where “A” represents a calculated IC50 of less than 100 nM; “B” represents a calculated IC50 of between 100 nM and 1 μM; and “C” represents a calculated IC50 of greater than 1 μM.

Jurkat cells = test: Inhibition of proliferation of Jurkat cells (CellTiter-Glo); type: cell-based; settings: Homo sapiens, 72 hour proliferation assay
Description: Representative compounds of the invention were tested at different concentrations (from 10 μM to […]; 0.5 log serial dilutions) for their ability to inhibit the proliferation of Jurkat cells. Known CDK inhibitors flavopiridol and triptolide were used as positive controls. Cells were grown in RPMI 1640+10% FBS+1% Glutamax. The cells were supplemented with FBS (Life Technologies) and 100 U·mL^−1 penicillin, 100 μg·mL^−1 streptomycin (Invitrogen) and cultured at 37° C. in a humidified chamber in the presence of 5% CO2. Proliferation assays were conducted over a 72 hour time period. CellTiter-Glo® (Promega Corporation, Madison, Wis. USA) was used to assess the anti-proliferative effects of the compounds following manufacturer's directions and utilizing the reagents supplied with the CellTiter-Glo® kit. In this table, “A” represents an IC50 of less than 500 nM; “B” an IC50 of between 500 nM and 5 μM; and “C” an IC50 of greater than 5 μM.

Sequence of CDK7 (P50613 whole entry): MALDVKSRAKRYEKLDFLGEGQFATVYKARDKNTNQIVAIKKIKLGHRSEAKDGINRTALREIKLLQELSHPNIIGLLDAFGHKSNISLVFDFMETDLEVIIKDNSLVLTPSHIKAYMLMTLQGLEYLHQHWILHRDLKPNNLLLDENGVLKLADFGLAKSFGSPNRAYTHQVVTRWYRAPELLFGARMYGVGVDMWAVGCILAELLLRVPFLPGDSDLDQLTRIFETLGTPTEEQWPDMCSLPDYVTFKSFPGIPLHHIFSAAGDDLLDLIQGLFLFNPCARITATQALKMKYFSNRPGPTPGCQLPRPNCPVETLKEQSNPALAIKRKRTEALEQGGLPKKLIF
Sequence of CDK7 (P51946 whole entry partner): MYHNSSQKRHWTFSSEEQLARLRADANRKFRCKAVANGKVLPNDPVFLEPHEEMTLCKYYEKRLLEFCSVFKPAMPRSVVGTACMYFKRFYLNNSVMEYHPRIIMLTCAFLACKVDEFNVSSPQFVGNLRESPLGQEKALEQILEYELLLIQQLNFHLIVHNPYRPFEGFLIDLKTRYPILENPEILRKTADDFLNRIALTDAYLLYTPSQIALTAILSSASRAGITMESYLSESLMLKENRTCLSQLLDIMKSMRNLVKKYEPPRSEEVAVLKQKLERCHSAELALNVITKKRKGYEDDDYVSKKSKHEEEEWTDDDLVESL
Sequence of CDK7 (P51948 whole entry partner): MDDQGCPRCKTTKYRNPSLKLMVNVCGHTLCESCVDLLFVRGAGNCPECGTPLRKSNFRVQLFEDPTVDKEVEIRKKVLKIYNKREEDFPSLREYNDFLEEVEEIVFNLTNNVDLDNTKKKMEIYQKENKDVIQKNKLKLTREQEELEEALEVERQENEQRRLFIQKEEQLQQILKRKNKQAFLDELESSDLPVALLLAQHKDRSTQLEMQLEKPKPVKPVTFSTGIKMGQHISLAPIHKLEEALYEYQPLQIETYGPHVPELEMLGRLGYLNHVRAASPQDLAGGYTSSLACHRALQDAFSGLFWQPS

SMILES	IC50 (CDK7)	IC50 (Jurkat cells)
Nc1ccc(C(=O)N[C@H]2CCC[C@@H](Nc3ncc(Cl)c(-c4c[nH]c5ccccc45)n3)C2)cc1 [Compound 102, 4-amino-N-((1S,3R)-3-(5-chloro-4-(1H-indol-3-yl)pyrimidin-2-ylamino)cyclohexyl)benzamide]	100 to 1000 nM	> 5000 nM
NC(=O)C(=O)Nc1ccc(C(=O)N[C@H]2CCC[C@@H](Nc3ncc(Cl)c(-c4c[nH]c5ccccc45)n3)C2)cc1 [Compound 113, N1-(4-(((1S,3R)-3-((5-chloro-4-(1H-indol-3-yl)pyrimidin-2-yl)amino)cyclohexyl)carbamoyl)phenyl)oxalamide]	100 to 1000 nM	500 to 5000 nM
Nc1ccc(C(=O)N[C@H]2CCC[C@@H](Nc3ncc(C4CC4)c(-c4c[nH]c5ccccc45)n3)C2)cc1 [Compound 103, 4-amino-N-((1S,3R)-3-(5-cyclopropyl-4-(1H-indol-3-yl)pyrimidin-2-ylamino)cyclohexyl)benzamide.HCl]	100 to 1000 nM	> 5000 nM
CN(C)CCCC(=O)Nc1ccc(C(=O)N[C@H]2CCC[C@@H](Nc3ncc(Cl)c(-c4c[nH]c5ccccc45)n3)C2)cc1 [Compound 105, N-((1S,3R)-3-((5-chloro-4-(1H-indol-3-yl)pyrimidin-2-yl)amino)cyclohexyl)-4-(4-(dimethylamino)butanamido)benzamide]	< 100 nM	500 to 5000 nM
Nc1ccc(C(=O)NC23CC4CC(C2)CC(Nc2ncc(Cl)c(-c5c[nH]c6ccccc56)n2)(C4)C3)cc1 [Compound 100, 4-amino-N-(3-(5-chloro-4-(1H-indol-3-yl)pyrimidin-2-ylamino)tricyclo[3.3.1.1^3,7]decanyl)benzamide]	> 1000 nM	
Nc1ccc(C(=O)N[C@H]2CCC[C@@H](Nc3ncc(Cl)c(-c4c[nH]c5ccccc45)n3)C2)c(F)c1 [Compound 112, 4-amino-N-((1S,3R)-3-(5-chloro-4-(1H-indol-3-yl)pyrimidin-2-ylamino)cyclohexyl)-2-fluorobenzamide]	100 to 1000 nM	500 to 5000 nM
Nc1ccc(C(=O)N[C@H]2CCC[C@@H](Nc3ncc(Cl)c(-c4cccnc4)n3)C2)cc1 [Compound 108, 4-amino-N-((1S,3R)-3-(5-chloro-4-(pyridin-3-yl)pyrimidin-2-ylamino)cyclohexyl)benzamide]	> 1000 nM	> 5000 nM
N#Cc1cnc(N[C@@H]2CCC[C@H](NC(=O)c3ccc(N)cc3)C2)nc1-c1c[nH]c2ccccc12 [Compound 107, 4-amino-N-((1S,3R)-3-(5-cyano-4-(1H-indol-3-yl)pyrimidin-2-ylamino)cyclohexyl)benzamide]	< 100 nM	< 500 nM
Nc1ccc(NC(=O)[C@H]2CCC[C@@H](Nc3ncc(Cl)c(-c4c[nH]c5ccccc45)n3)C2)cc1 [Compound 106, (1S,3R)—N-(4-aminophenyl)-3-(5-chloro-4-(1H-indol-3-yl)pyrimidin-2-ylamino)cyclohexanecarboxamide]	< 100 nM	> 5000 nM
Nc1ccc(S(=O)(=O)N[C@H]2CCC[C@@H](Nc3ncc(Cl)c(-c4c[nH]c5ccccc45)n3)C2)cc1 [Compound 109, 4-amino-N-((1S,3R)-3-(5-chloro-4-(1H-indol-3-yl)pyrimidin-2-ylamino)cyclohexyl)benzenesulfonamide]	100 to 1000 nM	500 to 5000 nM
Nc1ccc(C(=O)N[C@H]2CCC[C@@H](Nc3ncc(Cl)c(-c4c[nH]c5ccccc45)n3)C2)cc1F [Compound 111, 4-amino-N-((1S,3R)-3-(5-chloro-4-(1H-indol-3-yl)pyrimidin-2-ylamino)cyclohexyl)-3-fluorobenzamide]	100 to 1000 nM	> 5000 nM
Nc1ccc(C(=O)NC2CC(F)CC(Nc3ncc(Cl)c(-c4c[nH]c5ccccc45)n3)C2)cc1 (racemic) [Compound 110, (+/−)-4-amino-N-(3-(5-chloro-4-(1H-indol-3-yl)pyrimidin-2-ylamino)-5-fluorocyclohexyl)benzamide]	100 to 1000 nM	
Nc1ccc(C(=O)N[C@H]2C[C@H](O)C[C@@H](Nc3ncc(Cl)c(-c4c[nH]c5ccccc45)n3)C2)cc1 (racemic) [Compound 101, (+/−)-4-amino-N-(3-(5-chloro-4-(1H-indol-3-yl)pyrimidin-2-ylamino)-5-hydroxycyclohexyl)benzamide]	< 100 nM	500 to 5000 nM
Nc1ccc(C(=O)NC23CCCC(Nc4ncc(Cl)c(-c5c[nH]c6ccccc56)n4)(C2)C3)cc1 [Compound 104, 4-amino-N-(5-(5-chloro-4-(1H-indol-3-yl)pyrimidin-2-ylamino)bicyclo[3.1.1]heptan-1-yl)benzamide]	100 to 1000 nM	> 5000 nM
Nc1ccc(C(=O)N[C@H]2CCC[C@@H](Nc3nccc(-c4c[nH]c5ccccc45)n3)C2)cc1 [Compound 114, N-((1S,3R)-3-(4-(1H-indol-3-yl)pyrimidin-2-ylamino)cyclohexyl)-4-aminobenzamide]	> 1000 nM	
